{"source": "paper PMC6001238", "about": "“Iterative Chemical Engineering of Vancomycin Leads to Novel Vancomycin Analogs With a High in Vitro Therapeutic Index” (Frontiers in Microbiology, 2018)", "key": {"[1]": {"tested_on": "MRSA", "test": "Minimum bactericidal concentration against MRSA", "type": "cell-based, Staphylococcus aureus", "protocol": "Plates were incubated overnight at 37°C and colony growth was inspected."}, "[2]": {"tested_on": "24 clinical MRSA isolates", "test": "MIC against a set of 24 clinical MRSA isolates (range, MIC50, TI)", "type": "cell-based, Staphylococcus aureus", "summary_of_the_method": "(§1)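 MIC values come from broth microdilution run to CLSI susceptibility-testing standards. Ultrapure water and uninoculated broth served as controls. In one series, vancomycin at a final 10 μM was co-dosed with the analogue or comparator antibiotic.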"}, "[3]": {"tested_on": "Murine leukemia (L1210) cells", "test": "Cytostatic activity, L1210 cell proliferation", "type": "cell-based", "conditions": "mean ± SD of three experiments; highest concentration tested 250 µM; 2 days; read-out: Toxicity (IC50) L1210", "summary_of_the_method": "(§2)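 Coulter counter cell counts after 37°C culture with compound; IC50 = concentration giving 50% growth inhibition vs negative control. Incubation: L1210 2 d, CEM 3 d, HeLa 4 d. Suspension density before mixing with an equal volume of dilution: 300,000–500,000 cells/mL.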"}, "[4]": {"tested_on": "MRSA KS2", "test": "MIC, broth microdilution, MRSA KS2", "type": "cell-based, Staphylococcus aureus", "summary_of_the_method": "as §1"}, "[5]": {"tested_on": "VE 149 (VanB)", "test": "MIC, VanB-type VRE strain VE 149", "type": "cell-based, Enterococcus", "conditions": "VE 149, VanB; read-out: MIC", "summary_of_the_method": "as §1"}, "[6]": {"tested_on": "MRSA KS6", "test": "MIC, broth microdilution, MRSA KS6", "type": "cell-based, Staphylococcus aureus", "summary_of_the_method": "as §1"}, "[7]": {"tested_on": "MRSA KS89", "test": "MIC, broth microdilution, MRSA KS89", "type": "cell-based, Staphylococcus aureus", "summary_of_the_method": "as §1"}, "[8]": {"tested_on": "VE 150 (VanB)", "test": "MIC, VanB-type VRE strain VE 150", "type": "cell-based, Enterococcus", "conditions": "VE 150, VanB; read-out: MIC", "summary_of_the_method": "as §1"}, "[9]": {"tested_on": "VE 82 (VanC1)", "test": "MIC, VanC1-type VRE strain VE 82", "type": "cell-based, Enterococcus gallinarum", "conditions": "VE 82, VanC1; read-out: MIC", "summary_of_the_method": "as §1"}, "[10]": {"tested_on": "E. faecalis VRE 37", "test": "MIC, broth microdilution, vancomycin-resistant E. faecalis VRE 37 (VanA)", "type": "cell-based, Enterococcus faecalis", "summary_of_the_method": "as §1"}, "[11]": {"tested_on": "VE 152 (VanB)", "test": "MIC, VanB-type VRE strain VE 152", "type": "cell-based, Enterococcus", "conditions": "VE 152, VanB; read-out: MIC", "summary_of_the_method": "as §1"}, "[12]": {"tested_on": "Clostridium difficile ATJ ribotype 014/20", "test": "MIC, plate drop assay, C. difficile ATJ ribotype 014/20", "type": "cell-based", "conditions": "C. difficile ATJ ribotype 014/20", "summary_of_the_method": "(§3)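 Lawns of each strain were made in soft BHI agar (0.4%) supplemented with CaCl2⋅2H2O and MgCl2⋅6H2O. Twofold compound dilutions (10 μL) were spotted, air-dried and incubated overnight at 37°C anaerobically; MIC read as cleared spots, in triplicate with water as negative control.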"}, "[13]": {"tested_on": "VE 148 (VanB)", "test": "MIC, VanB-type VRE strain VE 148", "type": "cell-based, Enterococcus", "conditions": "VE 148, VanB; read-out: MIC", "summary_of_the_method": "as §1"}, "[14]": {"tested_on": "E. faecalis VRE 29", "test": "MIC, broth microdilution, vancomycin-resistant E. faecalis VRE 29 (VanA)", "type": "cell-based, Enterococcus faecalis", "summary_of_the_method": "as §1"}, "[15]": {"tested_on": "S. aureus VSSA (ATCC 6538)", "test": "MIC, broth microdilution, vancomycin-sensitive S. aureus (VSSA/MSSA, ATCC 6538)", "type": "cell-based, Staphylococcus aureus", "summary_of_the_method": "as §1"}, "[16]": {"tested_on": "S. aureus VISA/HIP5827", "test": "MIC, broth microdilution, vancomycin-intermediate S. aureus VISA HIP5827", "type": "cell-based, Staphylococcus aureus", "conditions": "VISA/HIP5827; ratio of MIC of vancomycin and MIC of analogue", "summary_of_the_method": "as §1"}, "[17]": {"tested_on": "human T-lymphocyte (CEM) cells", "test": "Cytostatic activity, CEM cell proliferation", "type": "cell-based", "conditions": "mean ± SD of three experiments; highest concentration tested 250 µM; 3 days; read-out: Toxicity (IC50) CEM", "summary_of_the_method": "as §2"}, "[18]": {"tested_on": "33 clinical VRE isolates", "test": "MIC against a set of 33 clinical VRE isolates (range, MIC50, TI)", "type": "cell-based, Enterococcus faecalis", "summary_of_the_method": "as §1"}, "[19]": {"tested_on": "E. faecalis VRE 6", "test": "MIC, broth microdilution, vancomycin-resistant E. faecalis VRE 6 (VanA)", "type": "cell-based, Enterococcus faecalis", "summary_of_the_method": "as §1"}, "[20]": {"tested_on": "MRSA KS1", "test": "MIC, broth microdilution, MRSA KS1", "type": "cell-based, Staphylococcus aureus", "summary_of_the_method": "as §1"}, "[21]": {"tested_on": "E. faecalis VRE 53", "test": "MIC, broth microdilution, vancomycin-resistant E. faecalis VRE 53 (VanA)", "type": "cell-based, Enterococcus faecalis", "summary_of_the_method": "as §1"}, "[22]": {"tested_on": "VE 157 (VanB)", "test": "MIC, VanB-type VRE strain VE 157", "type": "cell-based, Enterococcus", "conditions": "VE 157, VanB; read-out: MIC", "summary_of_the_method": "as §1"}, "[23]": {"tested_on": "Clostridium difficile AIU ribotype 027", "test": "MIC, plate drop assay, C. difficile AIU ribotype 027", "type": "cell-based", "conditions": "C. difficile AIU ribotype 027", "summary_of_the_method": "as §3"}, "[24]": {"tested_on": "E. faecalis VSE 1", "test": "MIC, broth microdilution, vancomycin-sensitive E. faecalis (VSE 1)", "type": "cell-based, Enterococcus faecalis", "summary_of_the_method": "as §1"}, "[25]": {"tested_on": "L1210, CEM and HeLa cell lines", "test": "Cytostatic activity, average or summary over L1210, CEM and HeLa", "type": "cell-based", "summary_of_the_method": "as §2"}, "[26]": {"tested_on": "S. aureus VRSA", "test": "MIC, broth microdilution, vancomycin-resistant S. aureus (VRSA)", "type": "cell-based, Staphylococcus aureus", "summary_of_the_method": "as §1"}, "[27]": {"tested_on": "human cervix carcinoma (HeLa) cells", "test": "Cytostatic activity, HeLa cell proliferation", "type": "cell-based", "conditions": "mean ± SD of three experiments; highest concentration tested 250 µM; 4 days; read-out: Toxicity (IC50) HeLa", "summary_of_the_method": "as §2"}}, "note": "Like-named read-outs stand apart in the source and are kept apart here."}
{"smiles": "CNC(CC(C)C)C(=O)NC1C(=O)NC(CC(N)=O)C(=O)NC2C(=O)NC3C(=O)NC(C(=O)NC(C(=O)NCCCNC(=O)c4cc5ccccc5[nH]4)c4cc(O)cc(O)c4-c4cc3ccc4O)C(O)c3ccc(c(Cl)c3)Oc3cc2cc(c3OC2OC(CO)C(O)C(O)C2OC2CC(C)(N)C(O)C(C)O2)Oc2ccc(cc2Cl)C1O", "note": "(stereo not shown) [Vanc-24]", "values": [{"measurement": "MBC relative to MIC", "setting": "[1]", "result": "MBC equaling their MIC values"}, {"measurement": "MIC Range", "setting": "[2]; 24 clinical MRSA isolates", "result": "0.10 to 0.78", "unit": "µM"}, {"measurement": "TI (IC50/MIC50)", "setting": "[2]; in vitro therapeutic index, MRSA", "result": 825}, {"measurement": "MIC50", "setting": "[2]; median MIC, 24 clinical MRSA isolates, read-out: MIC50", "result": 0.20, "unit": "µM"}, {"measurement": "IC50", "setting": "[3]", "result": "164 ± 20", "unit": "µM"}, {"measurement": "MIC-fold improvement vs. vancomycin", "setting": "[4]; MRSA KS2, ratio of MIC of vancomycin and MIC of analogue", "result": 4}, {"measurement": "MIC", "setting": "[4]; Staphylococcus aureus MRSA KS2, read-out: MIC", "result": 0.20, "unit": "µM"}, {"measurement": "MIC", "setting": "[5]", "result": 1.56, "unit": "µM"}, {"measurement": "MIC-fold improvement vs. vancomycin", "setting": "[6]; MRSA KS6, ratio of MIC of vancomycin and MIC of analogue", "result": 2}, {"measurement": "MIC", "setting": "[6]; Staphylococcus aureus MRSA KS6, read-out: MIC", "result": 0.39, "unit": "µM"}, {"measurement": "MIC-fold improvement vs. vancomycin", "setting": "[7]; MRSA KS8, ratio of MIC of vancomycin and MIC of analogue", "result": 2}, {"measurement": "MIC", "setting": "[7]; Staphylococcus aureus MRSA KS8, read-out: MIC", "result": 0.39, "unit": "µM"}, {"measurement": "MIC", "setting": "[8]", "result": 1.56, "unit": "µM"}, {"measurement": "MIC", "setting": "[9]", "result": 0.39, "unit": "µM"}, {"measurement": "MIC", "setting": "[10]; Enterococcus faecalis VRE 37 (vancomycin-resistant), read-out: MIC", "result": 6.25, "unit": "µM"}, {"measurement": "MIC-fold improvement vs. vancomycin", "setting": "[10]; VRE 37, ratio of MIC of vancomycin and MIC of analogue", "result": 64}, {"measurement": "MIC", "setting": "[11]", "result": 1.56, "unit": "µM"}, {"measurement": "MIC-fold improvement vs. vancomycin", "setting": "[12]", "result": 11}, {"measurement": "MIC", "setting": "[13]", "result": 3.13, "unit": "µM"}, {"measurement": "MIC", "setting": "[14]; Enterococcus faecalis VRE 29 (vancomycin-resistant), read-out: MIC", "result": 12.5, "unit": "µM"}, {"measurement": "MIC-fold improvement vs. vancomycin", "setting": "[14]; VRE 29, ratio of MIC of vancomycin and MIC of analogue", "result": 32}, {"measurement": "MIC", "setting": "[15]; Staphylococcus aureus VSSA, read-out: MIC", "result": 0.20, "unit": "µM"}, {"measurement": "MIC-fold improvement vs. vancomycin", "setting": "[15]; VSSA, ratio of MIC of vancomycin and MIC of analogue", "result": 4}, {"measurement": "MIC-fold improvement vs. vancomycin", "setting": "[16]", "result": 32}, {"measurement": "IC50", "setting": "[17]", "result": "248 ± 3", "unit": "µM"}, {"measurement": "MIC Range", "setting": "[18]; 33 clinical VRE isolates", "result": "3.13 to 50", "unit": "µM"}, {"measurement": "TI (IC50/MIC50)", "setting": "[18]; in vitro therapeutic index, VRE", "result": 26}, {"measurement": "MIC50", "setting": "[18]; median MIC, 33 clinical VRE isolates, read-out: MIC50", "result": 6.25, "unit": "µM"}, {"measurement": "MIC", "setting": "[19]; Enterococcus faecalis VRE 6 (vancomycin-resistant), read-out: MIC", "result": 0.78, "unit": "µM"}, {"measurement": "MIC-fold improvement vs. vancomycin", "setting": "[19]; VRE 6, ratio of MIC of vancomycin and MIC of analogue", "result": 256}, {"measurement": "MIC-fold improvement vs. vancomycin", "setting": "[20]; MRSA KS1, ratio of MIC of vancomycin and MIC of analogue", "result": 2}, {"measurement": "MIC", "setting": "[20]; Staphylococcus aureus MRSA KS1, read-out: MIC", "result": 0.39, "unit": "µM"}, {"measurement": "MIC", "setting": "[21]; Enterococcus faecalis VRE 53 (vancomycin-resistant), read-out: MIC", "result": 25, "unit": "µM"}, {"measurement": "MIC-fold improvement vs. vancomycin", "setting": "[21]; VRE 53, ratio of MIC of vancomycin and MIC of analogue", "result": 16}, {"measurement": "MIC", "setting": "[22]", "result": 1.56, "unit": "µM"}, {"measurement": "MIC-fold improvement vs. vancomycin", "setting": "[23]", "result": 14}, {"measurement": "MIC", "setting": "[24]; Enterococcus faecalis VSE 1 (vancomycin-sensitive), read-out: MIC", "result": 0.20, "unit": "µM"}, {"measurement": "MIC-fold improvement vs. vancomycin", "setting": "[24]; VSE 1, ratio of MIC of vancomycin and MIC of analogue", "result": 8}, {"measurement": "IC50", "setting": "[25]; average IC50 used for TI in Table S5, >250 entered as 250, read-out: IC50", "result": 165, "unit": "µM"}, {"measurement": "IC50", "setting": "[25]; average of L1210, CEM and HeLa, read-out: Toxicity (IC50) Average", "result": 165, "unit": "µM"}, {"measurement": "MIC", "setting": "[26]; Staphylococcus aureus VRSA, read-out: MIC", "result": 1.56, "unit": "µM"}, {"measurement": "MIC-fold improvement vs. vancomycin", "setting": "[26]; VRSA, ratio of MIC of vancomycin and MIC of analogue", "result": 64}, {"measurement": "IC50", "setting": "[27]", "result": "83 ± 9", "unit": "µM"}]}
